According to patent US20070111929A1, “Methods for the treatment of anxiety and for identification of anxiolytic agents” (Wyeth, priority 2005, published 2007):

Columns and labels:
oxytocin receptor = target: T1, oxytocin receptor (Mus musculus, UniProt P97926); assay: mouse 4-plate model, AT4 with the oxytocin receptor antagonist WAY-162720 (Example 2); type: in vivo; settings: AT4 3 mg/kg alone, acute, 30 min before test
T1 construct: from tissue; host or cells: whole living Swiss Webster mouse (in vivo behavioural test)
T1 sequence (P97926 1-388): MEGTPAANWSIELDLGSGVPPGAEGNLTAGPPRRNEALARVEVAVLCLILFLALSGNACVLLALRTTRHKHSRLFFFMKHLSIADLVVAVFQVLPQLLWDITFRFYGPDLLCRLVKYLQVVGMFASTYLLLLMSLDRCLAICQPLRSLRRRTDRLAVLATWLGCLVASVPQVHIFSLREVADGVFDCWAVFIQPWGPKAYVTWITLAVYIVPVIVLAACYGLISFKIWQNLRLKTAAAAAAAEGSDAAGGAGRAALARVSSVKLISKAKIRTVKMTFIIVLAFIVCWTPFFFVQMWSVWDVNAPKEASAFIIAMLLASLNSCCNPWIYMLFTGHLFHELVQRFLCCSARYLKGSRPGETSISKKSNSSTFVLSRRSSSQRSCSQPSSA
Description: Male Swiss Webster mice weighing 18-24 g were used in the 4 plate studies. […] Animals were maintained on a 12-hour light/dark cycle (lights on at 0600) with all studies performed during the light phase. On the day of experiments, mice were injected with AT4 (0, 1, 3 and 10 mg/kg) 30 minutes before the start of the study. Initially, mice were individually placed in a plexiglass cage (18×25×16 cm) with a floor consisting of four rectangular metal plates (8×11 cm), which are wired to a shock generator (Med Associates). In each experiment, mice were placed into the chamber and given an 18-sec habituation period, which was followed by a 1-min test session. After the habituation period, an electric shock (0.8 mA) was delivered for 3.0 sec when mice crossed from one plate to another. The crossing from one plate to the next is referred to as a “punished crossing.” The number of punished crossings during a 1-min test period was recorded by a computer. […] Data were subjected to an overall one-way analysis of variance (ANOVA) and post-hoc comparisons were made by a contrast using least squares. Significant differences in treatment occurred when p<0.05 compared to vehicle.
For these studies, the same 4-plate procedures were used as described in Example 1, above. […] A 3-sec time followed the delivery of each shock and a computer recorded the number of punished crossings during a 1-min test period. […]

AT4 receptor = target: T2, AT4 receptor (Mus musculus, UniProt Q8C129); assay: mouse 4-plate model of anxiety, AT4 alone (Example 1); type: in vivo; settings: acute; for number of punished crossings compared to vehicle: subcutaneous, 30 min before test, male Swiss Webster mice
T2 construct: from tissue; host or cells: whole living Swiss Webster mouse (in vivo behavioural test)
T2 sequence (Q8C129 1-1025): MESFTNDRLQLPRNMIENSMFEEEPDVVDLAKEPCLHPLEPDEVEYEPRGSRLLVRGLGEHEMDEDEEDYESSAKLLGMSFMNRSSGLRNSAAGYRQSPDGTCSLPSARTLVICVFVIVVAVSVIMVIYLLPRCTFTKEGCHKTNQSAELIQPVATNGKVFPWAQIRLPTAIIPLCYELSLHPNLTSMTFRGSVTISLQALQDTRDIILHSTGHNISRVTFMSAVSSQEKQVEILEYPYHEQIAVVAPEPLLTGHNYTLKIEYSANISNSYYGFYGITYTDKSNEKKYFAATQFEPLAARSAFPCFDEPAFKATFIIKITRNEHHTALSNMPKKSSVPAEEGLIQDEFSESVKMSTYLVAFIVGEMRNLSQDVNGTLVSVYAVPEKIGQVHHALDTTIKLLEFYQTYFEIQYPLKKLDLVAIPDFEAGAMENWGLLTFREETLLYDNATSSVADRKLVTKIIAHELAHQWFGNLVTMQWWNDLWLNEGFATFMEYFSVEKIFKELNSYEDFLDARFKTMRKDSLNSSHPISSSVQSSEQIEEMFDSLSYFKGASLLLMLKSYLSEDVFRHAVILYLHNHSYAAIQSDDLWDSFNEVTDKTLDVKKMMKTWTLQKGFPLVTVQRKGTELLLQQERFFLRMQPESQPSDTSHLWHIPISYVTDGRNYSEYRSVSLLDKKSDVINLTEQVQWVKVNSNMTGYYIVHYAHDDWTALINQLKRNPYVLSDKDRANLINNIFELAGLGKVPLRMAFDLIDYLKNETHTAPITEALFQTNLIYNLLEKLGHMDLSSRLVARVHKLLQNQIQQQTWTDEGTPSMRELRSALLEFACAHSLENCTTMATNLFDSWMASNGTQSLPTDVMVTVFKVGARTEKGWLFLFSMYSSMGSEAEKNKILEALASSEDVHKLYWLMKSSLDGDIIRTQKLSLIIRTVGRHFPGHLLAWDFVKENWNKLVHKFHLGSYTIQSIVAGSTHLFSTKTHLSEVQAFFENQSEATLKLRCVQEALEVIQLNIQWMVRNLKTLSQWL
Description: Male Swiss Webster mice weighing 18-24 g were used in the 4 plate studies. Animals were housed in groups of 15 in an AAALAC-accredited facility (Wyeth Research, Princeton, N.J.) with food and water available ad libitum. Animals were maintained on a 12-hour light/dark cycle (lights on at 0600) with all studies performed during the light phase. On the day of experiments, mice were injected with AT4 (0, 1, 3 and 10 mg/kg) 30 minutes before the start of the study. Initially, mice were individually placed in a plexiglass cage (18×25×16 cm) with a floor consisting of four rectangular metal plates (8×11 cm), which are wired to a shock generator (Med Associates). In each experiment, mice were placed into the chamber and given an 18-sec habituation period, which was followed by a 1-min test session. After the habituation period, an electric shock (0.8 mA) was delivered for 3.0 sec when mice crossed from one plate to another. The crossing from one plate to the next is referred to as a “punished crossing.” The number of punished crossings during a 1-min test period was recorded by a computer. The mean number of punished crossings for each group was expressed as a percentage of the value observed in the control animals. Data were subjected to an overall one-way analysis of variance (ANOVA) and post-hoc comparisons were made by a contrast using least squares. Significant differences in treatment occurred when p<0.05 compared to vehicle.

number of punished crossings compared to vehicle control (oxytocin receptor): increased
number of punished crossings compared to vehicle (AT4 receptor; AT4 3 mg/kg): significantly (p<0.05) increased
number of punished crossings compared to vehicle (AT4 receptor; AT4 10 mg/kg): significantly (p<0.05) increased
anxiolytic-like effect in the 4-plate model, dose dependence (AT4 receptor; AT4 1, 3 and 10 mg/kg subcutaneous, FIG. 1): dose-dependent
SMILES: CC[C@H](C)[C@H](NC(=O)[C@H](Cc1ccc(O)cc1)NC(=O)[C@@H](N)C(C)C)C(=O)N[C@@H](Cc1cnc[nH]1)C(=O)N1CCC[C@H]1C(=O)N[C@@H](Cc1ccccc1)C(=O)O [AT4, Val-Tyr-Ile-His-Pro-Phe]
